Experimental data as given in patent US5308763A, “Method of making primary culture of olfactory neurons” (The Johns Hopkins University, priority 1992, dated 1994).
Entries after “also recorded” stand apart in the source; their conditions may differ. Where two headings read alike, the source gives them in different places.

Experiments:
[1] = tested on: olfactory neurons; test: Evaluation of substrate matrix substances for plating efficiency and morphology of olfactory neurons; format: cell-based, rat; conditions: for process / neurite outgrowth (in words) / plating efficiency (in words): culture surface coated with the substance
Method: Two chamber slides were pretreated in a number of ways, For laminin coating, 1 ml of MDV containing 25 ug/ml laminin was plated onto glass two-chamber slides overnight at 37° C.; before use, the slides were rinsed with MDV. For fibronectin, slides were treated with a solution containing 1 ml of MDV containing 20 ug/ml fibronectin (Collaborative Research), incubated overnight at 37° C. and rinsed with MDV prior to use. For polyornithine (PORN, Sigma Chemicals), a solution of a concentration of 1 mg/ml PORN in deionized distilled water was added to slides, incubated 1 hr at 37° C., rinsed twice with deionized distilled water, and rinsed once with MDV prior to use. When laminin was used on PORN-treated slides, slides were treated with PORN and then laminin in the usual manner. Coating of slides with poly-D-lysine was performed analogous to treatment with polyornithine. Heparan sulfate was diluted in MDV to a concentration of 10 ug/ml and 1 ml was placed on a slide, maintained overnight at 37° C., and rinsed with deionized distilled water prior to use. Collagen (Gibco) or collage IV (Collaborative Research) was prepared as a 50 ug/ml solution in deionized distilled water and 1 ml of this solution utilized per slide. In the case of collagen, the solution was allowed to air dry. Collage IV was maintained overnight at room temperature, aspirated, air dried and then rinsed twice with deionized distilled water prior to use. When laminin was used with collagen IV, collage IV was prepared as described, and laminin was subsequently added in the usual manner. Matrigel (Collaborative Research) was utilized according to manufacturer's instructions.
Primary cultures were prepared as described above and plated onto a number of different substrates and examined by phase contrast as well as immunofluorescence with antivimentin antisera (FIG. 6).
Matrigel was also examined as a substrate (FIG. 7).

[2] = tested on: adenylyl cyclase; test: Adenylyl cyclase augmentation in olfactory neuronal cultures by odorants; format: cell-based
Description: The cells of the olfactory epithelium from which the neuronal cells have been purified are mainly the sustentacular cells and the basal cells. These cells can be distinguished on the basis of morphology, marker proteins, and lack of excitability.

[3] = tested on: Primary olfactory neurons; test: Effect of odorant on cyclic AMP levels in primary olfactory neuron cultures (RIA); format: cell-based, rat; conditions: for activity at 10 µM: Rattus norvegicus, Neuron, 10 uM IBMP, ± SEM, read-out: cAMP
Method: (§1) After 5-7 days in primary culture, olfactory neuronal cells were exposed to odorants and cyclic AMP levels assayed. To avoid transient changes in intracellular cyclic AMP levels caused by feeding, the medium was changed to 0.5 ml of MEM-AIR containing 0.1% (w/v) RIA-grade BSA 2-3 hr before use. At zero-time, cultures received an additional 0.5 ml of MEM-AIR with or without 10 uM 2-isobutyl-3-methoxypyrazine (IBMP). At various times thereafter the entire medium was aspirated and the reaction quenched by addition of 6% in cold TCA. Cellular extracts were processed and RIA for cyclic AMP was performed as described below.
(§2) Primary cultures of olfactory neurons were plated in laminin-treated 24-well cluster dishes at a density of 1×10^6 cells per cm^2. Cells were used between days 5-7 in culture. Thirty min before experimentation, monolayers were fed wtih MEM-AIR containing 0.1% (w/v) RIA grade BSA. Immediately prior to use, odorants were diluted from a 50 mM stock in absolute ethanol to 10 uM. At zero time, 0.5 ml of MEM-AIR containing 0.1% RIA grade BSA and odorant at twice the final concentration was added to wells.
(§3) The experiment was terminated by aspiration of culture medium and addition of 200 ul of 6% (w/v) trichloroacetic acid (TCA) at 0° C. Culture wells were heated to 56° C. in an oven for 1 hr, scraped, sonicated, chilled, and microfuged for 30 sec. The supernatants were extracted 4 times with 5 volumes of ether, and the ether-extracted water phase was lyophilized to dryness. Samples were resuspended in 200 ul of RIA-NEN buffer (NEN/DuPont, Boston, Mass.) and RIA assay was performed according to specifications of the cyclic AMP kit.

[4] = tested on: NG-108 cells; test: Effect of odorant on cyclic AMP levels in NG-108 cells (RIA); format: cell-based; conditions: for activity at 10 µM: 10 uM IBMP, ± SEM, read-out: cAMP
Method: as §1, §2, §3
1 NG-108 cells (a generous gift from Dr. Karen Braas, University of Vermont, Burlington, Vt.) were grown and maintained as previously described (Braas, Childers and U'Prichard, 1983). For experimentation, cells were plated in 24-well clustered dishes and treated similarly to olfactory neurons. NG-108 cells are hybrid cells of a globlastoma and a non-olfactory neural-like cell. NG-108 is a continuous cell line.

[5] = tested on: olfactory neurons; test: Effect of NGF on olfactory neuronal survival and neurite extension; format: cell-based, rat
[6] = read-out: concentration eliciting comparable levels of excitation (50% of maximal adenylyl cyclase augmentation)

fibronectin
process / neurite outgrowth (in words) [1]: processes are shorter

CC(C)CC(=O)O [isovaleric acid]
EC50 [2, 6]: 1000 to 10000 nM

CC(C)=CCCC(C)=CC#N [citralva]
EC50 [2, 6]: 1000 to 10000 nM

laminin
plating efficiency (in words) [1]: optimal plating efficiency
process / neurite outgrowth (in words) [1]: cells extend neurites in a random fashion
aggregation of cells (in words) ([1]; duplicate suspensions, laminin vs matrigel, FIG. 7): no tendency to reaggregate

COc1nccnc1CC(C)C [IBMP, 2-isobutyl-3-methoxypyrazine]
activity at 10 µM ([3]; 0.5 min): 350 ± 160%
activity at 10 µM ([3]; 1 min): 250 ± 92%
activity at 10 µM ([3]; 5 min): 270 ± 113%
activity at 10 µM ([3]; 0.25 h, time 15 min): 175 ± 47%
maximum increase in intracellular cyclic AMP over control levels ([3]; olfactory neurons): approximately three
rise in intracellular cyclic AMP levels (in words) ([3]; olfactory neurons): rapid, transient rise in intracellular cyclic AMP levels
activity at 10 µM ([4]; NG-108, 0.5 min, time 0.5 min): 103 ± 19%
activity at 10 µM ([4]; NG-108, 1 min, time 1.0 min): 94 ± 32%
activity at 10 µM ([4]; NG-108, 5 min, time 5.0 min): 99 ± 16%
activity at 10 µM ([4]; NG-108, 0.25 h, time 15 min): 70 ± 41%
change of cyclic AMP levels (in words) ([4]; NG-108 cells, similar treatment): does not alter cyclic AMP levels
EC50 ([2]; read-out: concentration stimulating to 50% of maximal adenylyl cyclase augmentation): 1 nM

collagen
plating efficiency (in words) [1]: somewhat better plating efficiency than poly-D-lysine, polyornithine or heparan-sulfate
process / neurite outgrowth (in words) [1]: process outgrowth is still stunted

B1: NGF: nerve growth factor (NGF, Collaborative Research) (protein, UniProt P01139 122-241, looked up)
Beta-nerve growth factor: SSTHPVFHMGEFSVCDSVSVWVGDKTTATDIKGKEVTVLAEVNINNSVFRQYFFETKCRASNPVESGCRGIDSKHWNSYCTTTHTFVKALTTDEKQAAWRFIRIDTACVCVLSRKATRRG
modifications: Beta-nerve growth factor
survival and neurite extension (in words) ([5]; NGF 25 ng/ml): necessary for survival of olfactory neurons; also recorded: affects both olfactory neuronal survival and neurite extension in culture
process extension without NGF (in words) ([5]; by 3 days in culture, without NGF): lose process extension
decrease of cell viability without NGF ([5]; by 3 days in culture, without vs with 25 ng/ml NGF): approximately 85%
